The values that follow come from ChEMBL document CHEMBL5360590, “Phyllospongianes A-E, Dinorscalarane Sesterterpenes from the Marine Sponge Phyllospongia foliascens” (J Nat Prod, 2023).

Experiment [1] relates to MDA-MB-231. Description: Cytotoxicity against human MDA-MB-231 cells assessed as reduction in cell viability by CCK-8 assay. In kind it is functional, cell-based. In general terms: Tetrazolium assays rely on reduction of a dye to a coloured formazan, in cell work by metabolically active cells.
Experiment [2] has as its system HepG2. Description: Cytotoxicity against human HepG2 cells assessed as reduction in cell viability by CCK-8 assay. In kind it is functional, cell-based.
Experiment [3] can be described thus: Cytotoxicity against human Enzalutamide-resistant LNCaP C4-2 cells assessed as reduction in cell viability by CCK-8 assay. The class given is functional, cell-based.
The test system of experiment [4] is MCF7. In words: Cytotoxicity against human MCF7 cells assessed as reduction in cell viability by CCK-8 assay. In kind it is functional, cell-based.
Experiment [5] deals with NCI-H460. In words: Cytotoxicity against human NCI-H460 cells assessed as reduction in cell viability by CCK-8 assay. The class given is functional, cell-based.
Experiment [6] relates to HT-29. Description: Cytotoxicity against human HT-29 cells assessed as reduction in cell viability by CCK-8 assay. In kind it is functional, cell-based.
Experiment [7] concerns Vibrio vulnificus. Description: Antibacterial activity against Vibrio vulnificus assessed as bacterial growth inhibition. In kind it is functional.
For experiment [8], the system named is Vibrio parahaemolyticus. Description: Antibacterial activity against Vibrio parahaemolyticus assessed as bacterial growth inhibition. The class given is functional.
The test system of experiment [9] is Escherichia coli. Description: Antibacterial activity against Escherichia coli assessed as bacterial growth inhibition. In kind it is functional.
Experiment [10] deals with Enterococcus faecalis. In words: Antibacterial activity against Enterococcus faecalis assessed as bacterial growth inhibition. The class given is functional.
Experiment [11] has as its system Bacillus subtilis. Description: Antibacterial activity against Bacillus subtilis assessed as bacterial growth inhibition. The class given is functional.
Experiment [12] deals with Pseudomonas aeruginosa. Description: Antibacterial activity against Pseudomonas aeruginosa assessed as bacterial growth inhibition. In kind it is functional.

By IC50 is commonly meant the concentration needed to halve the response being measured. As a reminder, the MIC is the lowest concentration that inhibits growth of the organism.

In brackets after ≈: the same amount, converted by molar mass.

With `CC[C@@]1(C)CCC[C@]2(C)[C@H]3C[C@H](OC(=O)CCC(C)C)[C@]4(C)C(C(=O)O)=CC[C@H]4[C@]3(C)CC[C@@H]12`, the IC50 in experiment [1] is > 50 µM; in experiment [2], 20.1 µM; in [3] it was 3.7 µM; in [4] it was 12.3 µM; in experiment [5] it was 11 µM; in experiment [6], 13.2 µM. The MIC in experiment [7] was found to be 4 µg/mL (≈ 8.46 µM); in experiment [8], 2 µg/mL (≈ 4.23 µM); in experiment [9], 8 µg/mL (≈ 16.9 µM); in experiment [10] it was 4 µg/mL (≈ 8.46 µM); in [11], 2 µg/mL (≈ 4.23 µM); in experiment [12] it was 4 µg/mL (≈ 8.46 µM).

In the case of `CCCCC(=O)O[C@H]1C[C@@H]2[C@@]3(C)CCC[C@](C)(CC)[C@@H]3CC[C@@]2(C)[C@@H]2CC=C(C(=O)O)[C@@]12C`, the IC50 was > 50 µM in experiment [1]; > 50 µM in [2]; 11.2 µM in experiment [3]; 15.3 µM in experiment [4]; 13 µM in experiment [5]; 18 µM in experiment [6]. Also, the MIC in experiment [7] came out at 64 µg/mL (≈ 140 µM); in experiment [8] it was 16 µg/mL (≈ 34.9 µM); in experiment [9] it was 32 µg/mL (≈ 69.8 µM); in [10], 16 µg/mL (≈ 34.9 µM); in experiment [11], 16 µg/mL (≈ 34.9 µM); in experiment [12] it was 32 µg/mL (≈ 69.8 µM).

In the case of `C[C@H]1COc2c(N3CCN(C)CC3)c(F)cc3c(=O)c(C(=O)O)cn1c23` [LEVOFLOXACIN ANHYDROUS], the MIC came out at 0.5 µg/mL (≈ 1.38 µM) in experiment [7]; 0.5 µg/mL (≈ 1.38 µM) in experiment [8]; 0.25 µg/mL (≈ 0.692 µM) in experiment [9]; 0.25 µg/mL (≈ 0.692 µM) in experiment [10]; 0.25 µg/mL (≈ 0.692 µM) in experiment [11]; 0.25 µg/mL (≈ 0.692 µM) in experiment [12].

Turning to `CC[C@@]1(C)CCC[C@]2(C)[C@H]3C[C@H](OC(=O)CCC(C)C)[C@]4(C)C(C=O)=CC[C@H]4[C@]3(C)CC[C@@H]12`, the IC50 in [1] was 32.3 µM; in experiment [2], 19.3 µM; in experiment [3], 1.7 µM; in [4], 3.5 µM; in experiment [5] it was 7.2 µM; in experiment [6], 4.7 µM. Also, the MIC was 2 µg/mL (≈ 4.38 µM) in [7]; 2 µg/mL (≈ 4.38 µM) in experiment [8]; 8 µg/mL (≈ 17.5 µM) in experiment [9]; 4 µg/mL (≈ 8.76 µM) in experiment [10]; 1 µg/mL (≈ 2.19 µM) in [11]; 4 µg/mL (≈ 8.76 µM) in experiment [12].

Consider `Cn1nnc2c(C(N)=O)ncn2c1=O` [TEMOZOLOMIDE], for which the figures for the IC50 in experiment [1], in [2] and in [3] were 14.4 µM, 5.9 µM and 18.2 µM, respectively.

Regarding `CCCCC(=O)O[C@H]1C[C@@H]2[C@@]3(C)CCC[C@](C)(CC)[C@@H]3CC[C@@]2(C)[C@@H]2CC=C(C=O)[C@@]12C`, the IC50 in [1] was > 50 µM; in experiment [2], 32.1 µM; in [3], 5.7 µM; in experiment [4], 7.3 µM; in [5], 10.2 µM; in experiment [6], 8.7 µM. Besides, the MIC stood at 4 µg/mL (≈ 9.04 µM) in experiment [7]; 4 µg/mL (≈ 9.04 µM) in experiment [8]; 8 µg/mL (≈ 18.1 µM) in [9]; 4 µg/mL (≈ 9.04 µM) in experiment [10]; 2 µg/mL (≈ 4.52 µM) in experiment [11]; 4 µg/mL (≈ 9.04 µM) in experiment [12].

Regarding `CC[C@@]1(C)CCC[C@]2(C)[C@H]3C[C@H](OC(=O)C[C@H](O)C(C)C)[C@]4(C)C(C=O)=CC[C@H]4[C@]3(C)CC[C@@H]12`, the IC50 in [1] came to 13.2 µM; in experiment [2], 9.6 µM; in experiment [3] it was 0.7 µM; in experiment [4], 1.1 µM; in experiment [5], 2 µM; in experiment [6], 1.2 µM. Besides, the MIC in experiment [7] is > 64 µg/mL; in experiment [8], > 64 µg/mL; in experiment [9] it was > 64 µg/mL; in [10], > 64 µg/mL; in experiment [11] it was 8 µg/mL (≈ 16.9 µM); in experiment [12], > 64 µg/mL.
